# Patent publication US10800792B2, “Inhibitors of Bruton's tyrosine kinase and method of their use” (JANSSEN PHARMACEUTICA NV, priority 2015, dated 2020)
# Molecular target: unphosphorylated-BTK kinase domain (UP-BTK), GST-tagged human BTK (389-659aa) (Homo sapiens (Human), UniProt Q06187)
# Experiment: BTK kinase Lanthascreen binding assay
# Conditions: Lanthascreen tracer competition, 60 minutes incubation, pIC50 = negative log of the IC50 in molar
# Summary of the method: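 Compound binding to the unphosphorylated kinase domain was monitored by displacement of a fluorescently labelled tracer in a Lanthascreen format. Potency is given as pIC50, the negative log of the molar IC50.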
# Sequence of unphosphorylated-BTK kinase domain (UP-BTK), GST-tagged human BTK (389-659aa) (Q06187 389-659): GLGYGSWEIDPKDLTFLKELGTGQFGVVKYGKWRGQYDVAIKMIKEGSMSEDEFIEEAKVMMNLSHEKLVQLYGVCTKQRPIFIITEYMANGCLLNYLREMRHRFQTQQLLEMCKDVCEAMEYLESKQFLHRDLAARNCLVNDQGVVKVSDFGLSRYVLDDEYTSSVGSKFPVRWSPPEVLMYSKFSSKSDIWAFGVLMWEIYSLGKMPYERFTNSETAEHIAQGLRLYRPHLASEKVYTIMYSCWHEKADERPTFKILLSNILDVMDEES
SMILES,BTK_I_binding pIC50,IC50 (read-out: BTK_I_binding pIC50 (converted)) [nM]
"Cc1cc(Oc2ccccc2)ccc1N1C(=O)Nc2c(C(=O)N[C@@H]3CCCN(C(=O)[C@H]4CCN4)C3)sc3nccc1c23 [Example 849, N—((R)-1-((R)-Azetidine-2-carbonyl)piperidin-3-yl)-5-(2-methyl-4-phenoxyphenyl)-4-oxo-4,5-dihydro-3H-1-thia-3,5,8-triazaacenaphthylene-2-carboxamide]",7.6,–
"Cc1cc(Oc2ccccc2)ccc1N1C(=O)Nc2c(C(=O)N[C@@H]3CCCN(C(=O)/C(C#N)=C/C4CC4)C3)sc3nccc1c23 [Example 850, (R,E)-N-(1-(2-Cano-3-cyclopropylacryloyl)piperidin-3-yl)-5-(2-methyl-4-phenoxyphenyl)-4-oxo-4,5-dihydro-3H-1-thia-3,5,8-triazaacenaphthylene-2-carboxamide]",7.6,–
"N#C/C(=C\C1CC1)C(=O)N1CCCC(NC(=O)c2sc3nccc4c3c2NC(=O)N4c2cccc(Oc3ccccc3)c2)C1 (stereo not shown) [Example 851, (E)-N-(1-(2-Cyano-3-cyclopropylacryloyl)piperidin-3-yl)-4-oxo-5-(3-phenoxyphenyl)-4,5-dihydro-3H-1-thia-3,5,8-triazaacenaphthylene-2-carboxamide]",7.5,–
"Cc1cc(Oc2ccccc2)ccc1N1C(=O)Nc2c(C(=O)N[C@@H]3CCCN(C#N)C3)sc3nccc1c23 [Example 852, (R)—N-(1-Cyanopiperidin-3-yl)-5-(2-methyl-4-phenoxyphenyl)-4-oxo-4,5-dihydro-3H-1-thia-3,5,8-triazaacenaphthylene-2-carboxamide]",–,31.6
"CN[C@@H](C)C(=O)N1CCC[C@@H](NC(=O)c2sc3nccc4c3c2NC(=O)N4c2ccc(Oc3ccccc3)cc2C)C1 [Example 853, 5-(2-Methyl-4-phenoxyphenyl)-N—((R)-1-((S)-2-(methylamino)propanol)piperidin-3-yl)-4-oxo-4,5-dihydro-3H-1-thia-3,5,8-triazaacenaphthylene-2-carboxamide]",7.5,–
"Cc1ccccc1N1C(=O)Nc2c(C(=O)N[C@@H]3CCCN(C(=O)/C(C#N)=C/C4CC4)C3)sc3nccc1c23 [Example 854, (R,E)-N-(1-(2-Cyano-3-cyclopropylacryloyl)piperidin-3-yl)-4-oxo-5-(o-tolyl)-4,5-dihydro-3H-1-thia-3,5,8-triazaacenaphthylene-2-carboxamide]",7.5,–
"Cc1cc(Oc2cccc(COc3ccccc3C#N)c2)ccc1N1C(=O)Nc2c(C(=O)NC3CCN(C)CC3)sc3nccc1c23 [Example 855, 5-(4-(3-((2-Cyanophenoxy)methyl)phenoxy)-2-methylphenyl)-N-(1-methylpiperidin-4-yl)-4-oxo-4,5-dihydro-3H-1-thia-3,5,8-triazaacenaphthylene-2-carboxamide]",7.5,–
"COc1ccccc1Oc1ccc(N2C(=O)Nc3c(C(=O)NC4CCCN(C(=O)/C(C#N)=C/C5CC5)C4)sc4nccc2c34)c(C)c1 (stereo not shown) [Example 856, (E)-N-(1-(2-Cyano-3-cyclopropylacryloyl)piperidin-3-yl)-5-(4-(2-methoxyphenoxy)-2-methylphenyl)-4-oxo-4,5-dihydro-3H-1-thia-3,5,8-triazaacenaphthylene-2-carboxamide]",7.5,–
"Cc1cc(Oc2cccc(COc3ccccc3C#N)c2)ccc1N1C(=O)Nc2c(C(=O)NC3CCNCC3)sc3nccc1c23 [Example 857, 5-(4-(3-((2-Cyanophenoxy)methyl)phenoxy)-2-methylphenyl)-4-oxo-N-(piperidin-4-yl)-4,5-dihydro-3H-1-thia-3,5,8-triazaacenaphthylene-2-carboxamide]",7.5,–
"Cc1cc(Oc2ccccc2)ccc1N1C(=O)Nc2c(C(=O)NC3CCN(C)CC3)sc3nccc1c23 [Example 858, 5-(2-Methyl-4-phenoxyphenyl)-N-(1-methylpiperidin-4-yl)-4-oxo-4,5-dihydro-3H-1-thia-3,5,8-triazaacenaphthylene-2-carboxamide]",7.5,–
"Cc1ccc(Oc2ccccc2)cc1N1C(=O)Nc2c(C(=O)N[C@@H]3CCCN(C(=O)/C(C#N)=C/C4CC4)C3)sc3nccc1c23 [Example 859, (R,E)-N-(1-(2-Cyano-3-cyclopropylacryloyl)piperidin-3-yl)-5-(2-methyl-5-phenoxyphenyl)-4-oxo-4,5-dihydro-3H-1-thia-3,5,8-triazaacenaphthylene-2-carboxamide]",7.4,–
"O=C(N[C@@H]1CCCNC1)c1sc2nccc3c2c1NC(=O)N3c1ccc(Oc2ccccc2)cc1 [Example 860, (R)-4-oxo-5-(4-phenoxyphenyl)-N-(piperidin-3-yl)-4,5-dihydro-3H-1-thia-3,5,8-triazaacenaphthylene-2-carboxamide]",7.4,–
"Cc1cc(Oc2cccc(COc3ccccc3C#N)c2)ccc1N1C(=O)Nc2c(C(=O)N[C@@H]3CCCN(C(=O)/C(C#N)=C/C4CC4)C3)sc3nccc1c23 [Example 861, (R,E)-N-(1-(2-Cyano-3-cyclopropylacryloyl)piperidin-3-yl)-5-(4-(3-((2-cyanophenoxy)methyl)phenoxy)-2-methylphenyl)-4-oxo-4,5-dihydro-3H-1-thia-3,5,8-triazaacenaphthylene-2-carboxamide]",7.3,–
"COc1ccc(N2C(=O)Nc3c(C(=O)N[C@@H]4CCCN(C(=O)/C(C#N)=C/C5CC5)C4)sc4nccc2c34)c(C)c1 [Example 862, (R,E)-N-(1-(2-Cyano-3-cyclopropylacryloyl)piperidin-3-yl)-5-(4-methoxy-2-methylphenyl)-4-oxo-4,5-dihydro-3H-1-thia-3,5,8-triazaacenaphthylene-2-carboxamide]",7.3,–
"C=CC(=O)N1CCC[C@H](NC(=O)c2sc3nccc4c3c2NC(=O)N4c2ccc(Oc3ccccc3)cc2C)C1 [Example 863, (S)—N-(1-Acryloylpiperidin-3-yl)-5-(2-methyl-4-phenoxyphenyl)-4-oxo-4,5-dihydro-3H-1-thia-3,5,8-triazaacenaphthylene-2-carboxamide]",7.3,–
"C=CC(=O)N1CC[C@H](NC(=O)c2sc3nccc4c3c2NC(=O)N4c2ccc(Oc3ccccc3)cc2C)C1 [Example 864, (S)—N-(1-Acryloylpyrrolidin-3-yl)-5-(2-methyl-4-phenoxyphenyl)-4-oxo-4,5-dihydro-3H-1-thia-3,5,8-triazaacenaphthylene-2-carboxamide]",7.3,–
"Cc1cc(Oc2ccccc2)ccc1N1C(=O)Nc2c(C(=O)NC3CCNCC3)sc3nccc1c23 [Example 865, 5-(2-Methyl-4-phenoxyphenyl)-4-oxo-N-(piperidin-4-yl)-4,5-dihydro-3H-1-thia-3,5,8-triazaacenaphthylene-2-carboxamide]",7.3,–
"Cc1cc(Oc2ccccc2)ccc1N1C(=O)Nc2c(C(=O)N[C@@H]3CCCN(C(=O)/C=C/CN4CCCC4)C3)sc3nccc1c23 [Example 867, (R,E)-5-(2-Methyl-4-phenoxyphenyl)-4-oxo-N-(1-(4-(pyrrolidin-1-yl)but-2-enoyl)piperidin-3-yl)-4,5-dihydro-3H-1-thia-3,5,8-triazaacenaphthylene-2-carboxamide]",7.3,–
"Cc1cc(Oc2ccccc2)ccc1N1C(=O)Nc2c(C(=O)N[C@@H]3CCN(C(=O)/C(C#N)=C/C(C)(C)C)C3)sc3nccc1c23 [Example 868, (R,E)-N-(1-(2-Cyano-4,4-dimethylpent-2-enoyl)pyrrolidin-3-yl)-5-(2-methyl-4-phenoxyphenyl)-4-oxo-4,5-dihydro-3H-1-thia-3,5,8-triazaacenaphthylene-2-carboxamide]",7.3,–
"COc1ccccc1Oc1ccc(N2C(=O)Nc3c(C(=O)NC4CCCNC4)sc4nccc2c34)c(C)c1 (stereo not shown) [Example 870, 5-(4-(2-Methoxyphenoxy)-2-methylphenyl)-4-oxo-N-(piperidin-3-yl)-4,5-dihydro-3H-1-thia-3,5,8-triazaacenaphthylene-2-carboxamide]",7.3,–
"CCC(=O)N1CCC[C@@H](NC(=O)c2sc3nccc4c3c2NC(=O)N4c2ccc(Oc3ccccc3)cc2C)C1 [Example 871, (R)-5-(2-Methyl-4-phenoxyphenyl)-4-oxo-N-(1-propionylpiperidin-3-yl)-4,5-dihydro-3H-1-thia-3,5,8-triazaacenaphthylene-2-carboxamide]",7.3,–
"Cc1cc(Oc2ccccc2)ccc1N1C(=O)Nc2c(C(=O)NC3CCN(C#N)CC3)sc3nccc1c23 [Example 872, N-(1-Cyanopiperidin-4-yl)-5-(2-methyl-4-phenoxyphenyl)-4-oxo-4,5-dihydro-3H-1-thia-3,5,8-triazaacenaphthylene-2-carboxamide]",7.2,–
"Cc1cc(Oc2ccccc2)ccc1N1C(=O)Nc2c(C(=O)N[C@@H]3CCCN(C)C3)sc3nccc1c23 [Example 873, (R)-5-(2-Methyl-4-phenoxyphenyl)-N-(1-methylpiperidin-3-yl)-4-oxo-4,5-dihydro-3H-1-thia-3,5,8-triazaacenaphthylene-2-carboxamide]",6.9,–
"Cc1cc(Oc2ccccc2)ccc1N1C(=O)Nc2c(C(=O)N[C@@H]3CCCN(C(=O)[C@H]4CCCN4)C3)sc3nccc1c23 [Example 876, 5-(2-Methyl-4-phenoxyphenyl)-4-oxo-N—((R)-1-((R)-pyrrolidine-2-carbonyl)piperidin-3-yl)-4,5-dihydro-3H-1-thia-3,5,8-triazaacenaphthylene-2-carboxamide]",7.1,–
"Cc1cc(Oc2ccccc2)ccc1N1C(=O)Nc2c(C(=O)NC3CCCN(C(=O)/C(C#N)=C/C4CC4)C3)sc3nccc1c23 (stereo not shown) [Example 877, (E)-N-(1-(2-Cyano-3-cyclopropylacryloyl)piperidin-3-yl)-5-(2-methyl-4-phenoxyphenyl)-4-oxo-4,5-dihydro-3H-1-thia-3,5,8-triazaacenaphthylene-2-carboxamide]",7.1,–
